How the values were obtained:
Assay in all cases: relative viability (nuclei count vs DMSO), 5 days (fraction); higher = more cells survive
[1] = compound: CCn1c(-c2nonc2N)nc2c(C#CC(C)(C)O)ncc(OC[C@H]3CCCNC3)c21 + CS(=O)(=O)N1CCN(Cc2cc3nc(-c4cccc5[nH]ncc45)nc(N4CCOCC4)c3s2)CC1 [Pictilisib] (partner 1 µM)
In short: (§1)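 Values are medians from duplicate plates. Each reflects relative viability, defined as the nuclei count of treated wells over that of vehicle wells. Lung cancer cell lines in 1536-well plates were pin-tool dosed one day after seeding with one drug alone or with a fixed anchor-drug dose plus five library-drug doses (not always all listed) in √10 steps, then fixed, stained and imaged at 4× after 5 days.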

BAM7 + Luminespib = compound: CCOC1=CC=CC=C1N=NC2=C(NN(C2=O)C3=NC(=CS3)C4=CC=CC=C4)C [BAM7] + CCNC(=O)c1noc(-c2cc(C(C)C)c(O)cc2O)c1-c1ccc(CN2CCOCC2)cc1 [Luminespib] (partner 0.01 µM)
In short: as §1

BAM7 + Trametinib = compound: CCOC1=CC=CC=C1N=NC2=C(NN(C2=O)C3=NC(=CS3)C4=CC=CC=C4)C [BAM7] + CC(=O)Nc1cccc(-n2c(=O)n(C3CC3)c(=O)c3c(Nc4ccc(I)cc4F)n(C)c(=O)c(C)c32)c1 [Trametinib] (partner 0.02 µM)
In short: as §1

[2] = compound: CCn1c(-c2nonc2N)nc2c(C#CC(C)(C)O)ncc(OC[C@H]3CCCNC3)c21 + O=C(c1cc(Cc2n[nH]c(=O)c3ccccc23)ccc1F)N1CCN(C(=O)C2CC2)CC1 [Olaparib] (partner 8 µM)
In short: as §1

Cell Line	relative viability ([1]; first compound 0.01 µM)	relative viability ([1]; first compound 0.03162 µM)	relative viability ([1]; first compound 0.1 µM)	relative viability ([1]; first compound 0.3162 µM)	relative viability ([1]; first compound 1 µM)	relative viability (BAM7 + Luminespib; first compound 0.5 µM)	relative viability (BAM7 + Luminespib; first compound 5 µM)	relative viability (BAM7 + Luminespib; first compound 15.81 µM)	relative viability (BAM7 + Luminespib; first compound 50 µM)	relative viability (BAM7 + Trametinib; first compound 0.5 µM)	relative viability (BAM7 + Trametinib; first compound 5 µM)	relative viability (BAM7 + Trametinib; first compound 15.81 µM)	relative viability (BAM7 + Trametinib; first compound 50 µM)	relative viability ([2]; first compound 0.01 µM)	relative viability ([2]; first compound 0.03162 µM)	relative viability ([2]; first compound 0.1 µM)	relative viability ([2]; first compound 0.3162 µM)	relative viability ([2]; first compound 1 µM)
NCI-H441	0.472	0.494	0.522	0.486	0.466	0.411	0.326	0.381	0.351	0.522	0.518	0.498	0.496	0.554	0.726	0.529	0.551	0.567
NCI-H460	0.426	0.314	0.203	0.306	0.203	0.0323	0.0283	0.029	0.0339	0.0937	0.124	0.145	0.13	0.363	0.411	0.474	0.403	0.495
NCI-H520	0.332	0.345	0.249	0.241	0.272	0.207	0.236	0.243	0.222	0.595	0.782	0.804	0.789	0.337	0.341	0.236	0.194	0.169
NCI-H596	0.398	0.344	0.366	0.377	0.436	0.848	0.956	0.951	1.18	0.869	0.838	0.754	0.736	0.682	–	0.72	0.697	0.871
NCI-H647	0.366	0.468	0.23	0.368	0.44	0.241	0.18	0.191	0.146	0.457	0.599	0.494	0.445	0.467	0.775	0.486	0.561	0.517
NCI-H650	0.867	0.96	0.968	0.521	0.758	0.73	1.03	0.755	0.917	1.02	0.98	1.04	1.28	0.387	0.43	0.435	0.371	0.392
NCI-H661	0.368	0.564	0.299	0.385	0.401	0.916	0.938	0.96	0.921	0.561	0.638	0.606	0.619	0.713	0.755	0.836	0.771	0.758
NCI-H727	0.441	0.355	0.275	0.43	0.315	0.215	–	0.345	0.33	0.413	0.414	0.393	0.386	0.801	0.668	0.751	0.805	0.869
NCI-H838	0.496	0.44	0.536	0.499	0.553	0.359	0.292	0.346	0.328	0.504	0.524	0.498	0.494	0.74	0.838	0.804	0.726	0.76
NCI-H1355	0.534	0.361	0.384	0.392	0.472	0.697	0.754	0.637	0.707	0.399	0.386	0.317	0.457	0.689	0.774	0.734	0.709	0.735
NCI-H1395	0.665	0.536	0.561	0.553	0.57	0.713	0.929	0.514	0.673	0.972	1.28	0.946	1.06	0.464	0.412	0.472	0.433	0.372
NCI-H1437	0.445	0.522	0.432	0.406	0.378	1.16	1.13	1.12	1.09	0.415	0.396	0.394	0.414	0.633	0.648	0.64	0.605	0.625
NCI-H1650	0.531	0.602	0.441	0.586	0.562	0.171	0.191	0.19	0.2	0.607	0.467	0.578	0.727	0.782	0.837	0.893	0.761	0.738
NCI-H1651	0.551	0.564	0.607	0.523	0.639	0.761	0.836	0.853	0.734	0.859	0.842	0.835	0.862	0.194	0.189	0.197	0.185	0.215
NCI-H1666	0.533	0.395	0.543	0.408	0.392	1	0.953	1.03	1.03	0.895	0.879	0.887	0.837	0.793	0.722	0.752	0.769	0.778
NCI-H1734	0.456	0.466	0.403	0.423	0.461	0.215	0.202	0.171	0.211	0.766	0.798	0.667	0.626	0.625	0.573	0.575	0.555	0.618
NCI-H1755	0.426	0.445	0.41	0.408	0.382	0.431	0.495	0.525	0.524	0.749	0.805	0.705	0.779	0.969	0.891	0.873	0.847	0.917
